# Test system: Arg-1 in CD11b+/Ly6G+ granulocytic MDSCs
# Assay: Arg-1 expression in granulocytic MDSCs of treated mice
# Type: in vivo, mouse
# Settings: spleens of injected MD4+/−/Eμ-TCL1+/+ mice
smiles,measurement,value
"O=c1oc2c(C3OCCCO3)c(O)ccc2c2c1CNCC2 [Compound 4, 7-(1,3-dioxan-2-yl)-8-hydroxy-1,2,3,4-tetrahydro-5H-chromeno[3,4-c]pyridin-5-one]",Arg-1 levels in granulocytic MDSCs versus DMSO-injected mice,expressed decreased levels of Arg-1
